This is an account of results in patent publication US5219848A, “Cephem compounds” (ICI Pharma, priority 1989, dated 1993).

Format in all cases: cell-based
Common to all, as to design: unit not given here
Common to all, as to conditions: Isosensitest agar, 10^4 CFU/spot

Assay [1] concerns P. aeruginosa PU21 (A8101028). The assay can be described thus: MIC by agar-dilution, P. aeruginosa PU21 (A8101028). From the text:
(§1) The following results were obtained for representative compounds on a standard in vitro test system using Isosensitest agar medium. The antibacterial activity is described in terms of the minimum inhibitory concentration (MlC) determined by the agar-dilution technique with an inoculum size of 10^4 CFU/spot.

For the next assay, the system named is E. coli DCO (A8341098). The assay can be described thus: MIC by agar-dilution, E. coli DCO (A8341098).
Source text: as §1

The test system of the next assay is Pr. morganii (A8433001). The assay can be described thus: MIC by agar-dilution, Pr. morganii (A8433001).
Source text: as §1

Assay [2] deals with St. aureus 147N (A8601052). The assay can be described thus: MIC by agar-dilution, St. aureus 147N (A8601052).
Source text: as §1

For assay [3], the system named is Ent. cloacae P99 (A8401054). The assay can be described thus: MIC by agar-dilution, Ent. cloacae P99 (A8401054).
Source text: as §1

The test system of the next assay is S. dublin (A8369001). The experiment in a line: MIC by agar-dilution, S. dublin (A8369001).
Source text: as §1

Assay [4] concerns Strep. pyogenes (A681018). The assay can be described thus: MIC by agar-dilution, Strep. pyogenes (A681018).
Source text: as §1

The test system of the next assay is Kleb. oxytoca (A8395055). The experiment in a line: MIC by agar-dilution, Kleb. oxytoca (A8395055).
Source text: as §1

In assay [5] the test system is Serr. marcesens (A8421003). The assay can be described thus: MIC by agar-dilution, Serr. marcesens (A8421003).
Source text: as §1

Regarding “7-[2-(2-Aminothiazol-4-yl)-2-((Z)-1-carboxy-1-methylethoxyimino)acetamido]- 3-(8-bromo-6,7-dihydroxy-3-oxo-tetrahydroisoquinolin-2-ylmethyl)ceph-3-em-4-carboxylic acid [Example 8]”, the MIC is listed as 0.008 in assay [1]; 0.008 in the assay on E. coli DCO (A8341098); 0.25 against Pr. morganii (A8433001); 8 in [2]; 0.125 in [3]; 0.03 against S. dublin (A8369001). The MIC in assay [4] was determined as 0.06; against Kleb. oxytoca (A8395055) it was 0.015; in assay [5], 0.06.
